Positions of bridges follow the written chain, without caps; N, C: chain ends. Residues, ends and D or L forms follow the SMILES beside them.
Key:
Oocyte = test: Inhibition of human alpha9 rat alpha10 nAChR expressed in Xenopus oocytes assessed as inhibition of acetylcholine-induced currents at 100 nM after 300 secs by two-electrode voltage clamp assay; assay type: cell-based
[1] = Inhibition of human alpha9 rat alpha10 nAChR expressed in Xenopus oocytes assessed as inhibition of acetylcholine-induced currents after 300 secs by two-electrode voltage clamp assay; assay type: cell-based; details: Oocyte
[2] = target: Nicotinic acetylcholine receptor alpha9/alpha10 (Rattus norvegicus, UniProt P43144+Q9JLB5); test: Inhibition of rat alpha9/alpha10 nAChR expressed in Xenopus oocytes assessed as inhibition of acetylcholine-induced currents after 300 secs by two-electrode voltage clamp assay; assay type: cell-based, Oocyte
Chain of Nicotinic acetylcholine receptor alpha9/alpha10 (P43144 whole entry): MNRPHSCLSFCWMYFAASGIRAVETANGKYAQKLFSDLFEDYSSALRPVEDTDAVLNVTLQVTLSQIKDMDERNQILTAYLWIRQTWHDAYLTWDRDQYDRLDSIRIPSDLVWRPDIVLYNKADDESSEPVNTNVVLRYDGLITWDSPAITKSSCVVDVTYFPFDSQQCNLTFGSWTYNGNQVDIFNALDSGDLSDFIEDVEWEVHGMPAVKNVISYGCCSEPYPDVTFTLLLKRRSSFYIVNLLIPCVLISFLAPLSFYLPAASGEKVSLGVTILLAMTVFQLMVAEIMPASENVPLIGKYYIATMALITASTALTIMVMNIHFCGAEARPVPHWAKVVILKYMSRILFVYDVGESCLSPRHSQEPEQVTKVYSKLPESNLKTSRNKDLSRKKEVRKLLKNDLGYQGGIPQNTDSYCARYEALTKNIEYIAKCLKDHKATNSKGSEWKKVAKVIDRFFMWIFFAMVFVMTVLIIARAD
Chain of Nicotinic acetylcholine receptor alpha9/alpha10 (Q9JLB5 whole entry): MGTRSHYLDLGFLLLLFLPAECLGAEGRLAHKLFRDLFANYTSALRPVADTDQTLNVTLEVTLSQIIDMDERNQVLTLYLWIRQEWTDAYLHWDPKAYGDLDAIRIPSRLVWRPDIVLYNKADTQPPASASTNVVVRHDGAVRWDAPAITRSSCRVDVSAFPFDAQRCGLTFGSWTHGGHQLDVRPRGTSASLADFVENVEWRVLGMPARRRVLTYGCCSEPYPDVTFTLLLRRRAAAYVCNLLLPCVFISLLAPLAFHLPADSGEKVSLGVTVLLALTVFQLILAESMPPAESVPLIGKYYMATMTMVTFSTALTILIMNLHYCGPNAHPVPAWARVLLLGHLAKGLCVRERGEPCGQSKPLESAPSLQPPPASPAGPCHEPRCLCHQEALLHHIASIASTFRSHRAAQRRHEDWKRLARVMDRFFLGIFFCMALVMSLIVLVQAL

[3] = Selectivity ratio of IC50 for human alpha9 rat alpha10 nAChR to IC50 for rat alpha9/alpha10 nAChR

Row | Structure (SMILES) | inhibition (Oocyte) [%] | IC50 [1] [nM] | IC50 [2] [nM] | Ratio IC50 [3]
1 | CC[C@H](C)[C@@H]1NC(=O)[C@H](CCC(=O)O)NC(=O)[C@@H]2CCCN2C(=O)[C@H](Cc2cnc[nH]2)NC(=O)[C@H](CC(=O)O)NC(=O)[C@H](Cc2ccccc2)NC(=O)[C@H](CC(N)=O)NC(=O)[C@@H]2CSSC[C@H](NC(=O)CN)C(=O)N[C@@H](CSSC[C@@H](C(=O)O)NC1=O)C(=O)N[C@@H](CO)C(=O)N[C@@H](CC(=O)O)C(=O)N1CCC[C@H]1C(=O)N[C@@H](CCCNC(=N)N)C(=O)N2 (H-GCCSDPRCNFDHPEIC-OH; disulfide 2-8, 3-16) | 10 | 763 | 500 | 
2 | CC[C@H](C)[C@@H]1NC(=O)[C@H](CCC(=O)O)NC(=O)[C@@H]2CCCN2C(=O)[C@H](Cc2cnc[nH]2)NC(=O)[C@H](CC(=O)O)NC(=O)[C@H](Cc2c[nH]c3ccccc23)NC(=O)[C@H](CC(N)=O)NC(=O)[C@@H]2CSSC[C@H](NC(=O)CN)C(=O)N[C@@H](CSSC[C@@H](C(=O)O)NC1=O)C(=O)N[C@@H](CO)C(=O)N[C@@H](CC(=O)O)C(=O)N1CCC[C@H]1C(=O)N[C@@H](CCCNC(=N)N)C(=O)N2 (H-GCCSDPRCNWDHPEIC-OH; disulfide 2-8, 3-16) | 80 | 33 | 43 | 
3 | CC[C@H](C)[C@@H]1NC(=O)[C@H](CCC(=O)O)NC(=O)[C@@H]2CCCN2C(=O)[C@H](Cc2cnc[nH]2)NC(=O)[C@H](CC(=O)O)NC(=O)[C@H](Cc2ccc(O)cc2)NC(=O)[C@H](CC(N)=O)NC(=O)[C@@H]2CSSC[C@H](NC(=O)CN)C(=O)N[C@@H](CSSC[C@@H](C(=O)O)NC1=O)C(=O)N[C@@H](CO)C(=O)N[C@@H](CC(=O)O)C(=O)N1CCC[C@H]1C(=O)N[C@@H](CCCNC(=N)N)C(=O)N2 |  | 975 | 70 | 14

Source: ChEMBL document CHEMBL2331341, “Determination of the α-conotoxin Vc1.1 binding site on the α9α10 nicotinic acetylcholine receptor” (J Med Chem, 2013)
